For 28 molecules, inhibition and IC50 results are on record in patent US7501430B2 (ArQule, Inc., priority 2006, dated 2009).

T1 sequence (P15056 whole entry V600E): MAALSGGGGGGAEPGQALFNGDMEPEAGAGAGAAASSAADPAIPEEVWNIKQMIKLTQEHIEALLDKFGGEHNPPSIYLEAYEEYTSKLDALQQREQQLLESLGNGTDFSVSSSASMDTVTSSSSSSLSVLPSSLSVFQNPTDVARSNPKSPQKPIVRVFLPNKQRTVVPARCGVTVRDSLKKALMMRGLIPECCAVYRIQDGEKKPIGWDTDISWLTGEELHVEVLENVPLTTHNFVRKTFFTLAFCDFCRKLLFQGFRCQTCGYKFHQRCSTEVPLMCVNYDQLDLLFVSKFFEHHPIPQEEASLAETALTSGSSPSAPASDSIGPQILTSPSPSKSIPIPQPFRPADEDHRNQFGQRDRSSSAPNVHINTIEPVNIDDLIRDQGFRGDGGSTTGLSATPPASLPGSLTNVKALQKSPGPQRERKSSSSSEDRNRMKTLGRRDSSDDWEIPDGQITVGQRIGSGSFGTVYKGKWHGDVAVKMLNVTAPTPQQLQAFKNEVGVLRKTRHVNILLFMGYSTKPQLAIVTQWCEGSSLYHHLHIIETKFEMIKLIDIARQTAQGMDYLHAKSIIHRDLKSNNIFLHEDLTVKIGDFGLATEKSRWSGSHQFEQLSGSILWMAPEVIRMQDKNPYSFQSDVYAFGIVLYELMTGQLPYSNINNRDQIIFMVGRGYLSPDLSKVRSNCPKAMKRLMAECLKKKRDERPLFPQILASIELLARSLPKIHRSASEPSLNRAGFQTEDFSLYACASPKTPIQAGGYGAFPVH

One assay concerns the target T1, mutant B-RAF (Homo sapiens, UniProt P15056, V600E).
T1 construct: purchased Upstate (Charlottesville, Va.)
As to the kind of experiment: RAF biochemical assay (MEK-1 phosphorylation, anti-phospho MEK1/2 detection). To be noted: @ 10 uM; read-out: Mutant B-RAF % inhibition. In short, it runs like this:
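Detection is by ELISA: after a 30 min room-temperature reaction, plate-captured GST-MEK-1 is probed with anti-phospho MEK1/2, then an AP-tagged secondary antibody with fluorescent Attophos read-out.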
As for `Cc1cn2c(-c3ccnc(N[C@@H]4CCCNC4)n3)c(-c3ccc(F)cc3)nc2s1` [Example 79, 4-[6-(4-fluorophenyl)-2-methylimidazo[2,1-b][1,3]thiazol-5-yl]-N-((3R)-piper-idin-3-yl]pyrimidin-2-amine], the inhibition at 10 µM amounted to 67%. Same read-out and setting: for `CC(C)CC(=O)N1CCC[C@@H](Nc2nccc(-c3c(-c4cccc(O)c4)nc4sccn34)n2)C1` [Example 116, 3-[5-(2-{[(3R)-1-(3-methylbutanoyl)piperidin-3-yl]amino}pyrimidin-4-yl)imidazo[2,1-b][1,3]thiazol-6-yl]phenol] the value was 52%. Same read-out and setting: for `Cc1cc(NC(=O)N2CCC[C@@H](Nc3nccc(-c4c(-c5ccc(F)cc5)nc5occn45)n3)C2)c(C(F)(F)F)o1` [Example 67, (3R)-3-({4-[6-(4-fluorophenyl)imidazo[2,1-b][1,3]oxazol-5-yl]pyrimidin-2-yl}amino)-N-[5-methyl-2-(trifluoromethyl)-3-furyl]piperidine-1-carboxamide] the value was 29%; for `CC(=O)N1CCC(Nc2nccc(-c3c(-c4ccccc4C)nc4occn34)n2)CC1` [Example 303, N-(1-acetylpiperidin-4-yl)-4-[6-(2-methylphenyl)imidazo[2,1-b][1,3]oxazol-5-yl]pyrimidin-2-amine], 42%. Same read-out and setting: then `CC(=O)Nc1nc(C)c(S(=O)(=O)N2CCC[C@@H](Nc3nccc(-c4c(-c5ccc(F)cc5)nc5occn45)n3)C2)s1` [Example 64, N-(5-{[(3R)-3-({4-[6-(4-fluorophenyl)imidazo[2,1-b][1,3]oxazol-5-yl]pyrimidin-2-yl}amino)piperidin-1-yl]sulfonyl}-4-methyl-1,3-thiazol-2-yl)acetamide], with 58%; and `CN(C)c1ccc(NC(=O)N2CCC[C@@H](Nc3nccc(-c4c(-c5ccc(F)cc5)nc5occn45)n3)C2)cc1` [Example 24, (3R)-N-[4-(dimethyl-amino)phenyl]-3-({4-[6-(4-fluorophenyl)imidazo[2,1-b][1,3]oxazol-5-yl]pyrimidin-2-yl}amino)piperidine-1-carboxamide], with 60%; and `O=S(=O)(c1cccc(Cl)c1)N1CCC[C@@H](Nc2nccc(-c3c(-c4ccc(F)cc4)nc4occn34)n2)C1` [Example 50, N-{(3R)-1-[(3-chlorophenyl)sulfonyl]piper-idin-3-yl}-4-[6-(4-fluorophenyl)imidazo[2,1-b][1,3]oxazol-5-yl]pyrimidin-2-amine], with 35%. As to `CCN(C)C(=O)N1CCC(Nc2nccc(-c3c(-c4ccc(F)cc4)nc4sccn34)n2)CC1` [Example 232, N-ethyl-4-({4-[6-(4-fluorophenyl)imidazo[2,1-b][1,3]thiazol-5-yl]pyrimidin-2-yl}amino)-N-methylpiperidine-1-carboxamide], the inhibition at 10 µM stood at 56%.

The same assay, now with this note: read-out: Mutant B-RAF IC50.
As for `O=S(=O)(c1ccc(F)cc1)N1CCC(Nc2nccc(-c3c(-c4ccc5c(c4)OCCO5)nc4sccn34)n2)CC1` [Example 260, 4-[6-(2,3-dihydro-1,4-benzodioxin-6-yl)imidazo[2,1-b][1,3]thiazol-5-yl]-N-{1-[(4-fluorophenyl)sulfonyl]piperidin-4-yl}pyrimidin-2-amine], the IC50 is 186 nM. The same measure, in the same setting: for `O=C(NCC1CCCCC1)N1CCC(Nc2nccc(-c3c(-c4ccc(F)cc4)nc4occn34)n2)CC1` [Example 183, N-(cyclohexylmethyl)-4-({4-[6-(4-fluorophenyl)imidazo[2,1-b][1,3]oxazol-5-yl]pyrimidin-2-yl}amino)piperidine-1-carboxamide] the value was 3610 nM; for `COc1ccc(C(=O)N2CCC(Nc3nccc(-c4c(-c5ccc(F)cc5)nc5occn45)n3)CC2)cc1` [Example 158, 4-[6-(4-fluorophenyl)imidazo[2,1-b][1,3]oxazol-5-yl]-N-[1-(4-methoxybenzoyl)piperidin-4-yl]pyrimidin-2-amine], 465 nM. Still for that read-out and setting: then `O=S(=O)(CC(F)(F)F)N1CCC[C@@H](Nc2nccc(-c3c(-c4cccc(O)c4)nc4sccn34)n2)C1` [Example 375, 3-{5-[2-({(3R)-1-[(2,2,2-trifluoroethyl)sulfonyl]piperidin-3-yl}amino)pyrimidin-4-yl]imidazo[2,1-b][1,3]thiazol-6-yl}phenol], with greater than 3000 nM. Same read-out and setting: then `CNC(=O)N1CCC(Nc2nccc(-c3c(-c4cccc(O)c4)nc4sccn34)n2)CC1` [Example 352, 4-({4-[6-(3-hydroxyphenyl)imidazo[2,1-b][1,3]thiazol-5-yl]pyrimidin-2-yl}amino)-N-methylpiperidine-1-carboxamide], with 670 nM; and `O=S(=O)(c1ccc(Cl)cc1)N1CCC[C@@H](Nc2nccc(-c3c(-c4ccccc4O)nc4sccn34)n2)C1` [Example 107, 2-{5-[2-({(3R)-1-[(4-chlorophenyl)sulfonyl]piperidin-3-yl}amino)pyrimidin-4-yl]imidazo[2,1-b][1,3]thiazol-6-yl}phenol], with 33 nM. As for `COC(=O)CCc1ccc(S(=O)(=O)N2CCC(Nc3nccc(-c4c(-c5cccc(O)c5)nc5sccn45)n3)CC2)cc1` [Example 272, methyl 3-(4-{[4-({4-[6-(3-hydroxyphenyl)imidazo[2,1-b][1,3]thiazol-5-yl]pyrimidin-2-yl}amino)piperidin-1-yl]sulfonyl}phenyl)propanoate], the IC50 was determined as 10 nM. Still for that read-out and setting: for `CN(C)c1ccc(NC(=O)N2CCC(Nc3nccc(-c4c(-c5ccc(F)cc5)nc5occn45)n3)CC2)cc1` [Example 175, N-[4-(dimethylamino)phenyl]-4-({4-[6-(4-fluorophenyl)imidazo[2,1-b][1,3]oxazol-5-yl]pyrimidin-2-yl}amino)piperidine-1-carboxamide] the value was 66 nM; for `Oc1cccc(-c2nc3sccn3c2-c2ccnc(NC3CCN(CC(O)COc4ccc(Cl)cc4)CC3)n2)c1` (stereo not shown) [Example 318, 3-{5-[2-({1-[3-(4-chlorophenoxy)-2-hydroxypropyl]piperidin-4-yl}amino)pyrimidin-4-yl]imidazo[2,1-b][1,3]thiazol-6-yl}phenol], 422 nM. Take `COc1cccc(-c2nc3sccn3c2-c2ccnc(N[C@@H]3CCCN(S(C)(=O)=O)C3)n2)c1` [Example 151, 4-[6-(3-methoxyphenyl)imidazo[2,1-b][1,3]thiazol-5-yl]-N-[(3R)-1-(methylsulfonyl)piperidin-3-yl]pyrimidin-2-amine]: the IC50 was determined as 850 nM. Still for that read-out and setting: for `COc1cccc(-c2nc3sccn3c2-c2ccnc(N[C@@H]3CCCN(S(=O)(=O)c4ccc(C(=O)O)cc4)C3)n2)c1` [Example 119, 4-{[(3R)-3-({4-[6-(3-methoxyphenyl)imidazo(2,1-b][1,3]thiazol-5-yl]pyrimidin-2-yl}amino)piperidin-1-yl]sulfonyl}benzoic acid] the value was 92 nM; for `O=C(Nc1ccc(F)cc1)N1CCC(Nc2nccc(-c3c(-c4ccc(F)cc4)nc4occn34)n2)CC1` [Example 174, N-(4-fluorophenyl)-4-({4-[6-(4-fluorophenyl)imidazo[2,1-b][1,3]oxazol-5-yl]pyrimidin-2-yl}amino)piperidine-1-carboxamide], 4730 nM; for `COc1cccc(-c2nc3sccn3c2-c2ccnc(N[C@@H]3CCCN(C[C@@H](O)CO)C3)n2)c1` [Example 147, (2R)-3-[(3R)-3-({4-[6-(3-methoxyphenyl)imidazo[2,1-b][1,3]thiazol-5-yl]pyrimidin-2-yl}amino)piperidin-1-yl]propane-1,2-diol], greater than 3000 nM. Same read-out and setting: for `COc1cccc(-c2nc3sccn3c2-c2ccnc(N[C@@H]3CCN(S(=O)(=O)c4ccc(C(=O)O)cc4)C3)n2)c1` [Example 281, 4-{[(3R)-3-({4-[6-(3-methoxyphenyl)imidazo[2,1-b][1,3]thiazol-5-yl]pyrimidin-2-yl}amino)pyrrolidin-1-yl]sulfonyl)benzoic acid] the value was greater than 3000 nM; for `CC(=O)Nc1ccc(S(=O)(=O)N2CCC[C@@H](Nc3nccc(-c4c(-c5cccc(O)c5)nc5sccn45)n3)C2)cc1` [Example 374, N-(4-{[(3R)-3-({4-[6-(3-hydroxyphenyl)imidazo[2,1-b][1,3]thiazol-5-yl]pyrimidin-2-yl}amino)piperidin-1-yl]sulfonyl}phenyl)acetamide], 1 nM; for `NC(=O)c1ccc(-c2nc3sccn3c2-c2ccnc(N[C@@H]3CCCN(S(=O)(=O)c4ccc(Cl)cc4)C3)n2)cc1` [Example 379, 4-{5-[2-({(3R)-1-[(4-chlorophenyl)sulfonyl]piperidin-3-yl}amino)pyrimidin-4-yl]imidazo[2,1-b][1,3]thiazol-6-yl}benzamide], 2670 nM. On to `N#Cc1ccc(S(=O)(=O)N2CCC[C@@H](Nc3nccc(-c4c(-c5cccc(O)c5)nc5sccn45)n3)C2)cc1` [Example 111, 4-{[(3R)-3-({4-[6-(3-hydroxyphenyl)imidazo[2,1-b][1,3]thiazol-5-yl]pyrimidin-2-yl}amino)piperidin-1-yl]sulfonyl}benzonitrile], for which the IC50 came out at 28 nM. Same read-out and setting: for `NCC(=O)Nc1cccc(-c2nc3sccn3c2-c2ccnc(N[C@@H]3CCCN(S(=O)(=O)c4ccc(Cl)cc4)C3)n2)c1` [Example 124, N~1~-(3-{5-[2-({(3R)-1-[(4-chlorophenyl)sulfonyl]piperidin-3-yl}amino)pyrimidin-4-yl]imidazo[2,1-b][1,3]thiazol-6-yl}phenyl)glycinamide] the value was 2960 nM.

With `Oc1cccc(-c2nc3occn3c2-c2ccnc(N[C@@H]3CCCNC3)n2)c1` [Example 333, 3-(5-{2-[(3R)-piperidin-3-ylamino]pyrimidin-4-yl}imidazo[2,1-b][1,3]oxazol-6-yl}phenol], the IC50 was 906 nM. As to `O=C(c1ccccc1)N1CCC[C@@H](Nc2nccc(-c3c(-c4ccc(F)cc4)nc4occn34)n2)C1` [Example 26, N-[(3R)-1-benzoylpiperidin-3-yl]-4-[6-(4-fluorophenyl)imidazo[2,1-b][1,3]oxazol-5-yl]pyrimidin-2-amine], the concentration for half-maximal inhibition (IC50) amounted to 195 nM.

As a reminder, the inhibition is the share of the control response that was lost under treatment. As a reminder, the IC50 is the concentration at which inhibition is half-maximal.
